Experimental data published in US8722665B2, “Cinnamido-pyrrolo[2,1-C][1,4]benzodiazepines as potential anticancer agents and process for the preparation thereof” (Council of Scientific & Industrial Research, priority 2008, dated 2014).

Key:
Test in all cases: In vitro cytotoxicity (SRB)
Type in all cases: cell-based, human
MCF7 = MCF7 (Breast); 48 h continuous drug exposure
Protocol: (§1) The compounds were evaluated for in vitro anticancer activity against sixty human tumour cells derived from nine cancer types (leukemia, non-small-cell lung, colon, CNS, melanoma, ovarian, prostate, and breast cancer) as shown in Table 1a. For each compound, dose response curves for each cell line were measured at a minimum of five concentrations at 10 fold dilutions. A protocol of 48 h continuous drug exposure was used and a sulforhodamine B (SRB) protein assay was used to estimate cell viability or growth. The concentration causing 50% cell growth inhibition (GI50), total cell growth inhibition (TGI 0% growth) and 50% cell death (LC50, −50% growth) compared with the control was calculated. The Log10 GI50 (concentration in mol/L causing 50% growth inhibition) values for Cinnamido-pyrrolo[2,1-c][1,4]benzodiazepine (8b) is listed in Table 2.

SK-OV-3 = SK-OV-3 (Ovarian); 48 h continuous drug exposure
Protocol: as §1

OVCAR-4 = OVCAR-4 (Ovarian); 48 h continuous drug exposure
Protocol: as §1

MOLT-4 = MOLT-4 (Leukemia); 48 h continuous drug exposure
Protocol: as §1

SF-268 = SF-268 (CNS); 48 h continuous drug exposure
Protocol: as §1

786-0 = 786-0 (Renal); 48 h continuous drug exposure
Protocol: as §1

DU-145 = DU-145 (Prostate); 48 h continuous drug exposure
Protocol: as §1

HCT-15 = HCT-15 (Colon); 48 h continuous drug exposure
Protocol: as §1

EKVX = EKVX (Non-small cell lung); 48 h continuous drug exposure
Protocol: as §1

UO-31 = UO-31 (Renal); 48 h continuous drug exposure
Protocol: as §1

MDA-MB-468 = MDA-MB-468 (Breast); 48 h continuous drug exposure
Protocol: as §1

NCI-H23 = NCI-H23 (Non-small cell lung); 48 h continuous drug exposure
Protocol: as §1

ACHN = ACHN (Renal); 48 h continuous drug exposure
Protocol: as §1

COLO 205 = COLO 205 (Colon); 48 h continuous drug exposure
Protocol: as §1

OVCAR-8 = OVCAR-8 (Ovarian); 48 h continuous drug exposure
Protocol: as §1

A498 = A498 (Renal); 48 h continuous drug exposure
Protocol: as §1

T-47D = T-47D (Breast); 48 h continuous drug exposure
Protocol: as §1

NCI/ADR-RES = NCI/ADR-RES (Breast); 48 h continuous drug exposure
Protocol: as §1

UACC-257 = UACC-257 (Melanoma); 48 h continuous drug exposure
Protocol: as §1

NCI-H226 = NCI-H226 (Non-small cell lung); 48 h continuous drug exposure
Protocol: as §1

TK-10 = TK-10 (Renal); 48 h continuous drug exposure
Protocol: as §1

PC-3 = PC-3 (Prostate); 48 h continuous drug exposure
Protocol: as §1

A549/ATCC = A549/ATCC (Non-small cell lung); 48 h continuous drug exposure
Protocol: as §1

BT-549 = BT-549 (Breast); 48 h continuous drug exposure
Protocol: as §1

HL-60(TB) = HL-60(TB) (Leukemia); 48 h continuous drug exposure
Protocol: as §1

M14 = M14 (Melanoma); 48 h continuous drug exposure
Protocol: as §1

K-562 = K-562 (Leukemia); 48 h continuous drug exposure
Protocol: as §1

UACC-62 = UACC-62 (Melanoma); 48 h continuous drug exposure
Protocol: as §1

SR = SR (Leukemia); 48 h continuous drug exposure
Protocol: as §1

OVCAR-3 = OVCAR-3 (Ovarian); 48 h continuous drug exposure
Protocol: as §1

HOP-92 = conditions: 48 h continuous drug exposure
Protocol: as §1

U251 = U251 (CNS); 48 h continuous drug exposure
Protocol: as §1

IGROV1 = IGROV1 (Ovarian); 48 h continuous drug exposure
Protocol: as §1

NCI-H522 = NCI-H522 (Non-small cell lung); 48 h continuous drug exposure
Protocol: as §1

COc1cc(/C=C/C(=O)N2CCN(C(=O)c3cc(OC)c(OC)c(OC)c3)CC2)ccc1OCCCOc1cc2c(cc1OC)C(=O)N1CCC[C@H]1C=N2 [8b, 7-methoxy-8-{3-(2-methoxy-4-(E)-3-oxo-3-[4-(3,4,5-trimethoxybenzoyl)piperazino]-1-propenylphenoxy)propoxy}-(11aS)-2,3,5,11^a-tetrahydro-5H-pyrrolo[2,1-c][1,4]benzo-diazepine-5-one]
GI50 (MCF7): 0.13 µM | GI50 (SK-OV-3): 0.49 µM | GI50 (OVCAR-4): 2.2 µM | GI50 (MOLT-4): 0.2 µM | GI50 (SF-268): 0.32 µM | GI50 (786-0): 0.49 µM | GI50 (DU-145): 0.36 µM | GI50 (HCT-15): 3.39 µM | GI50 (EKVX): 0.86 µM | GI50 (UO-31): 1.15 µM | GI50 (MDA-MB-468): 0.14 µM | GI50 (NCI-H23): 0.32 µM | GI50 (ACHN): 2.75 µM | GI50 (COLO 205): 0.18 µM | GI50 (OVCAR-8): 0.26 µM | GI50 (A498): 0.21 µM | GI50 (T-47D): 0.15 µM | GI50 (NCI/ADR-RES): 1.47 µM | GI50 (UACC-257): 0.27 µM | GI50 (NCI-H226): 0.25 µM | GI50 (TK-10): 0.69 µM | GI50 (PC-3): 0.34 µM | GI50 (A549/ATCC): 0.48 µM | GI50 (BT-549): 0.13 µM | GI50 (HL-60(TB)): 0.25 µM | GI50 (M14): 0.37 µM | GI50 (K-562): 0.15 µM | GI50 (UACC-62): 0.17 µM | GI50 (SR): 0.02 µM | GI50 (OVCAR-3): 0.29 µM | GI50 (HOP-92; HOP-92, first line so named (Non-small cell lung)): 0.32 µM | GI50 (HOP-92; HOP-92, second line so named (Non-small cell lung)): 0.17 µM | GI50 (U251): 0.27 µM | GI50 (IGROV1): 0.27 µM | GI50 (NCI-H522): 0.66 µM
